From US5591828A, “Bispecific and oligospecific mono-and oligovalent receptors, the preparation and use thereof” (Behringwerke Aktiengesellschaft, priority 1989, dated 1997)

Legend:
Assay in all cases: Quantitative inhibition ELISA for MAbs by DTPA or EDTA complexes
Assay type in all cases: binding, mouse (Balb/c)
[1] = target: MAb BW 2050/174 (anti-DTPA/EDTA monoclonal antibody); details: MAb 2050/174; solid phase Y-benzyl-DTPA-HSA; preincubation with competitor at RT for 30'
Method: (§1) Isothiocyanatobenzyl-DTPA (formula 2) was covalently coupled as hapten onto human serum albumin (HSA as carrier) with a degree of derivatization of 19 benzyl-DTPA molecules per HSA molecule by the method described in (N. W. Brechbiel et al., Inorganic Chemistry25, (1986) 2772-2781). 20 μg of this hapten-carrier complex, into which cold Y had been complexed, were injected s.c. on day 0 with Freund's adjuvant, on day 7 and 14 with incomplete Freund's adjuvant and on day 21 with PBS into Balb/c mice. On day 24, the spleens of the mice with the highest anti-DTPA antibody titers were fused with the SP2/0-Ag14 myeloma cell line (Shulman et al., Nature 276, (1978) 269). The resulting hybridomas were tested in a DTPA-specific ELISA for the production of high-affinity MAbs against DTPA and EDTA. The ELISA comprised a solid phase which was loaded with a solution containing HSA-benzyl-DTPA-Y. The supernatant containing the MAb to be tested was preincubated with free chelate or its metal ion complexes, and its binding to the specific solid phase was measured. An enzyme amplification system which is coupled to an anti-mouse immunoglobulin antibody was used for this purpose. The details of these methods are described in Annex 1a and 1b.
(§2) Quantitative inhibition ELISA for MAbs by DTPA or EDTA complexes
(§3) 1) 50 μl of Y-benzyl-DTPA-HSA 19 conjugate with a concentration of 1 μg of conjugate per ml of PBS, pH 7.2, are pipetted into each well and incubated at room temperature (RT) overnight.
(§4) 5) Preincubation of the diluted hybridoma supernatant with the competitor is carried out during the blocking (see Annex 1b).
(§5) 6) 50 μl of the appropriately prediluted and preincubated hybridoma supernatants to be tested are applied to each well and incubated at RT for 30 min.
(§6) 15) The extinctions are measured at 492 nm in a […]® […]. 50 μl of NADP with 50 μl of solution and 1200 μl of 0.1N H2 SO4 are employed as blank.
(§7) Preincubation of the hybridoma supernatant with the competitor
(§8) On the basis of the ELISA concentration determination, the hybridoma supernatants are diluted to 1.25 μg/ml in PBS without Ca^++ and Mg^++.
(§9) The hybridoma supernatant is incubated with 100,000-fold, 50,000-fold, 10,000-fold, 5,000-fold, 1,000-fold and 100-fold excess of competitor at RT for 30'. 50 μl of this are pipetted into the ELISA (see Annex 1a, no. 6).
(§10) The complexing constant of DTPA or EDTA to the metal ions depicted in Table I is extremely high so that complete saturation has to be expected on equimolar mixing of DTPA or EDTA with these metal ions. For this reason, the corresponding metal ions were incubated in a 3-fold molar excess with the DTPA or EDTA. As an example, 170 μl of a 10 mM cadmium sulfate solution in double-distilled water (see Annex 1d) were incubated with 30 μl of a 0.028 molar DTPA stock solution in double-distilled water at RT for 5'. Mixing 10 μl of this competitor solution with the hybridoma supernatant leads to a 100,000-fold excess of competitor over the MAb contained in the hybridoma supernatant. Lower competitor to MAb ratios were achieved by diluting the competitor solution in the particular salt ion solution appropriately for the desired molar excess (see Annex 1b).
(§11) Quantitative assay of inhibition of MAb by DTPA and EDTA
(§12) Molar excess of competitor which leads to 50% inhibition of the binding to the solid-phase antigen.

[2] = target: MAb 2050/532 (anti-DTPA/EDTA monoclonal antibody); details: solid phase Y-benzyl-DTPA-HSA, preincubation with competitor at RT for 30'
Method: as §1, §2, §3, §4, §5, §6, §7, §8, §9, §10, §11, §12

[3] = target: MAb 2050/535 (anti-DTPA/EDTA monoclonal antibody); details: solid phase Y-benzyl-DTPA-HSA, preincubation with competitor at RT for 30'
Method: as §1, §2, §3, §4, §5, §6, §7, §8, §9, §10, §11, §12

[4] = target: MAb 2050/531 (anti-DTPA/EDTA monoclonal antibody); details: solid phase Y-benzyl-DTPA-HSA, preincubation with competitor at RT for 30'
Method: as §1, §2, §3, §4, §5, §6, §7, §8, §9, §10, §11, §12

[5] = target: MAb 2050/534 (anti-DTPA/EDTA monoclonal antibody); details: solid phase Y-benzyl-DTPA-HSA, preincubation with competitor at RT for 30'
Method: as §1, §2, §3, §4, §5, §6, §7, §8, §9, §10, §11, §12

SMILES | Molar excess of competitor which leads to 50% inhibition of the binding to the solid-phase antigen [1] | Molar excess of competitor which leads to 50% inhibition of the binding to the solid-phase antigen [2] | Molar excess of competitor which leads to 50% inhibition of the binding to the solid-phase antigen [3] | Molar excess of competitor which leads to 50% inhibition of the binding to the solid-phase antigen [4] | Molar excess of competitor which leads to 50% inhibition of the binding to the solid-phase antigen [5]
NCCN [1,2-Diaminoethane, 1,2-diaminoethane] | > 10^5 molar excess | > 10^5 molar excess | > 10^5 molar excess | > 10^5 molar excess | > 10^5 molar excess
O=C(O)CN(CCN(CC(=O)O)CC(=O)O)CCN(CC(=O)O)CC(=O)O [DTPA, diethylenetriaminepentaacetate] | 10^3 molar excess | 10^3 molar excess | 10^3 molar excess | 10^3 molar excess | 10^3 molar excess
O=C([O-])CN(CCN(CC(=O)[O-])CC(=O)[O-])CCN(CC(=O)[O-])CC(=O)[O-].[Y+3] [DTPA-Y] | 10^4 molar excess | 5 × 10^4 molar excess | 10^4 molar excess | 5 × 10^4 molar excess | 5 × 10^4 molar excess
O=C([O-])CN(CCN(CCN(CC(=O)O)CC(=O)O)CC(=O)O)CC(=O)[O-].[Zn+2] [DTPA-Zn] | 5 × 10^3 molar excess | 5 × 10^3 molar excess | 10^3 molar excess | 5 × 10^3 molar excess | 5 × 10^3 molar excess
O=C([O-])CN(CCN(CC(=O)[O-])CC(=O)[O-])CC(=O)[O-].[Cu+2] [EDTA-Cu] | 10^3 molar excess | 5 × 10^3 molar excess | 10^2 molar excess | 10^2 molar excess | 10^3 molar excess
O=C([O-])CN(CCN(CC(=O)O)CC(=O)O)CC(=O)[O-].[Zn+2] [EDTA-Zn] | 10^3 molar excess | 10^3 molar excess | 10^2 molar excess | 10^3 molar excess | 10^3 molar excess
O=C(O)/C=C(\CC(=O)O)C(=O)O [Trans-aconitic acid, transaconitic acid] | > 10^5 molar excess | > 10^5 molar excess | > 10^5 molar excess | > 10^5 molar excess | > 10^5 molar excess
